For 1 compound, IC50 results are on record in ChEMBL document CHEMBL1142123, “Guttiferones K and L, antiproliferative compounds of Rheedia calcicola from the Madagascar rain forest” (J Nat Prod, 2007).

For the assay, the system named is A2780. Description: Antiproliferative activity against human A2780 cells. The class given is functional, cell-based.

In brackets after ≈: the same amount, converted by molar mass.

Compound `CC(C)=CCC[C@@]1(C)[C@H](CC=C(C)C)C[C@]2(CC=C(C)C)C(=O)[C@@]1(CC=C(C)C)C(=O)C(C(=O)c1cc(O)c(O)cc1O)=C2O` [GUTTIFERONE L] gave an IC50 of 3 µg/mL (≈ 4.85 µM).

For orientation: IC50 means the concentration at which inhibition is half-maximal.
